Reference: BindingDB's records for doi:10.1016/j.bmc.2009.08.006 (Universitat de Barcelona, 2009)

Each compound was assayed against 5-hydroxytryptamine receptor 6 (Homo sapiens, UniProt P50406) (assay: 5-HT6 Binding Assay). Conditions: pH 7.4; 37 °C.
Experimental: The incubation was initiated by addition of membrane to reaction buffer contained radioligand in the presence of test compound. And the incubation time was 60 min at 37 deg C. After incubation, the membranes were collected onto polyethylenimine-pretreated glass fiber filters. Radioactivity was determined by scintillation counting. Nonspecific binding was determined with 100 uM serotonin. Competition binding data were analyzed by using the LIGAND program, and assays were performed in triplicate determinations for each point.

Sequence of 5-hydroxytryptamine receptor 6 (P50406 whole entry): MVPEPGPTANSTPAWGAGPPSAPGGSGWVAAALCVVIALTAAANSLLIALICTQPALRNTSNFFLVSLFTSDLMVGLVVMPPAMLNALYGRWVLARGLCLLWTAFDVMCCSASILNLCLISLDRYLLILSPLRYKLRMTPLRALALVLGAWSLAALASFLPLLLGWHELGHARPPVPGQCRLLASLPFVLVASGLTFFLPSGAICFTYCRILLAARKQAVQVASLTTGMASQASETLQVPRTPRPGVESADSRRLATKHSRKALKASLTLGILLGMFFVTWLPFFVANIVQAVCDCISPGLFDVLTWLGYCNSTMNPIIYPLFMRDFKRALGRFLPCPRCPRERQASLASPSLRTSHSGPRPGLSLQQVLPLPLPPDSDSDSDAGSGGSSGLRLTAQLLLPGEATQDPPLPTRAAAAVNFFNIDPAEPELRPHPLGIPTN

| IC50 | SMILES | Ki | EC50 |
| --- | --- | --- | --- |
| 3000 nM | CC1=Cc2cc(NS(=O)(=O)c3c(Cl)nc4sccn34)ccc2C1 [indenylsulfonamide, 47+48] | 43 nM | – |
| – | CN(C)Cc1cn(S(=O)(=O)c2ccccc2)c2ccccc12 | – | 880 nM |
| – | Cc1cn(S(=O)(=O)c2ccc(N)cc2)c2ccccc12 [4-(3-methyl-1H-indole-1-sulfonyl)aniline, 8] | – | 320 nM |
| – | CN1CCC(c2cn(S(=O)(=O)c3ccccc3Br)c3ccccc23)C1 (centres undefined) | – | 53.3 nM |
| – | CN1CCC[C@H]1Cc1c[nH]c2ccc(NS(=O)(=O)c3ccc(C(F)(F)F)cc3)cc12 [pyrrolidinylindole, (S)-5b] | – | 21.6 nM |
| – | O=S(=O)(Nc1ccc2[nH]cc(C[C@H]3CCCN3)c2c1)c1ccccc1I [(R)-5a] | 1 nM | 0.4 nM |
| – | CN(C)CCc1c[nH]c2ccc(NS(=O)(=O)c3ccc4c(Cl)cccc4c3)cc12 | – | 0.29 nM |
